This passage reports IC50 results from US11306096B2, “4,6 dihydropyrrolo [3,4-C] pyrazole-5 (1H)-carbonitrile derivates for treating cancer” (MISSION THERAPEUTICS LIMITED, priority 2016, dated 2022).

The test addresses USP7 (Homo sapiens (Human), UniProt Q93009). The test can be described thus: USP7 Biochemical IC50 Assay. Conditions: FLAG-USP7; enzyme and compound incubated 30 min at room temp; TAMRA labelled peptide-ubiquitin fluorescence polarisation substrate; read after 2 hr; read-out: IC50 range. As to the method:
The USP7 construct was PCR amplified and cloned into a pFLAG-CMV-6a vector (Sigma-Aldrich) with an N-terminal FLAG tag. HEK293T cells were transfected with FLAG-USP7 using TransIT-LT1 transfection reagent (Mirus) according to the manufacturer's instructions. Cells were harvested 40 hours after transfection. […] The resin was washed two times with low salt buffer plus protease inhibitors (complete mini, Roche) and phosphatase inhibitors (PhosSTOP mini, Roche) and one time with high salt buffer (20 mM Tris, pH 7.5, 500 mM NaCl, 0.5 mM EDTA, 5 mM beta-mercaptoethanol, protease inhibitors (complete mini, Roche) and phosphatase inhibitors (PhosSTOP mini, Roche). To elute the bound USP7, elution buffer (10 mM Tris, pH 7.5, 150 mM NaCl, 0.5 mM EDTA, 10% glycerol, 0.5% NP40, 5 mM beta-mercaptoethanol, 0.15 mg/ml 3×FLAG peptide (Sigma-Aldrich)) was added to the resin and incubated at 4° C. for 2.5 hours rotating. The resin was centrifuged at 4000 rpm for 30 seconds, and the supernatant containing purified FLAG-USP7 was removed and stored at −80° C.
USP7 Biochemical IC50 Assay
A typical 8-point dilution series would be 100, 30, 10, 3, 1, 0.3, 0.1, 0.03 μM final. […] Either 1 μl of 50% DMSO or diluted compound was added to the plate. USP7 was diluted in reaction buffer (20 mM Tris, pH 7.5, 100 mM NaCl, 0.05% Tween 20, 0.5 mg/ml BSA, 5 mM—beta mercaptoethanol) to the equivalent of 0.0025 μl/well and 10 μl of diluted USP7 was added to the compound. Enzyme and compound were incubated for 30 min at room temp. Reactions were initiated by the addition of 50 nM of TAMRA labelled peptide linked to ubiquitin via an iso-peptide bond as fluorescence polarisation substrate. Reactions were read immediately after addition of substrate and following a 2 hr incubation at room temperature. Readings were performed on a Pherastar Plus (BMG Labtech). λ Excitation 540 nm; λ Emission 590 nm.
For orientation: Polarisation of emitted light reports the rotation of a fluorescent probe.

Where only a bound is given, the exact number is not on record here.

Sequence of USP7 (Q93009 whole entry): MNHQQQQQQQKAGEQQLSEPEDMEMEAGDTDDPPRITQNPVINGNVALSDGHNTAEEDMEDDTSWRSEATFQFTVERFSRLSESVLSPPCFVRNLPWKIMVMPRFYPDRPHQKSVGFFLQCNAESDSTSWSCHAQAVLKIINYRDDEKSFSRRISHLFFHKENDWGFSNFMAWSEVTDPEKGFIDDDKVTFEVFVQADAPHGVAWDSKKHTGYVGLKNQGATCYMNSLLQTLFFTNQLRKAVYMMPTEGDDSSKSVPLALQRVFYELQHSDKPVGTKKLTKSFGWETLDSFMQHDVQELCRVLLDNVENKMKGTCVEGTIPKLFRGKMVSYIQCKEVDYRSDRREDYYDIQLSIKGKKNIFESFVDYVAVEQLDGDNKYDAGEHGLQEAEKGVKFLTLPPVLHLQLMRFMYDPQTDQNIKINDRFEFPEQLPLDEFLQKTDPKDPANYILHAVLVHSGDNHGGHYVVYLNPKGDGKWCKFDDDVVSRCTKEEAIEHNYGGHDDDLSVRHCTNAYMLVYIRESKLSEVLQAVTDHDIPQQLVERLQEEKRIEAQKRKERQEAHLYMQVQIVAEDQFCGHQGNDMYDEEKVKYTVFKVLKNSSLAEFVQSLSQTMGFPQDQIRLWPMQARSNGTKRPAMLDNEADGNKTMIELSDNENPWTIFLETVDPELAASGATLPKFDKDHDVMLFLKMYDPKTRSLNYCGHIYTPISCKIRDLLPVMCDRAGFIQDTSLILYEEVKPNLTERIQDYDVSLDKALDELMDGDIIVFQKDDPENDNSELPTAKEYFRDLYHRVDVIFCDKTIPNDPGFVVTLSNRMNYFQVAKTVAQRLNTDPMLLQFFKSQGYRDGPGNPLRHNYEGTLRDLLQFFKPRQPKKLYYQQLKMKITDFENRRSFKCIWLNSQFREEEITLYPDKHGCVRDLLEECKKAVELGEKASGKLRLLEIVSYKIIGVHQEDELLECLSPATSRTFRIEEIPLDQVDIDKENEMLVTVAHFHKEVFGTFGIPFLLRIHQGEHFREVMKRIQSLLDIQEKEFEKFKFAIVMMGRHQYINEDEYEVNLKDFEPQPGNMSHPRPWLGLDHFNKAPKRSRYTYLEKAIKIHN

In general, IC50 refers to the point on the concentration scale where inhibition reaches its midpoint. For `Cn1nc2c(c1-c1ccccc1)CN(C#N)C2` [Example 22, 2-Methyl-3-phenyl-2,6-dihydropyrrolo[3,4-c]pyrazole-5(4H)-carbonitrile], the IC50 was below 10 µM.

For `N#CN1Cc2cnn(-c3ccccc3F)c2C1` [Example 4, 1-(2-Fluorophenyl)-4,6-dihydropyrrolo[3,4-c]pyrazole-5(1H)-carbonitrile], the IC50 lay within 10 to 30 µM.

For the compound `N#CN1Cc2c(Nc3cc4ccccc4cn3)nn(Cc3ccccc3)c2C1` [Example 32, 1-Benzyl-3-(isoquinolin-3-ylamino)-4,6-dihydropyrrolo[3,4-c]pyrazole-5(1H)-carbonitrile], the half-maximal inhibitory concentration (IC50) was below 10 µM.

In the case of `CCc1ccc(OC)c(-c2n[nH]c3c2CN(C#N)C3)c1` [Example 64, 3-(5-Ethyl-2-methoxyphenyl)-4,6-dihydropyrrolo[3,4-c]pyrazole-5(1H)-carbonitrile], the half-maximal inhibitory concentration (IC50) is below 10 µM.
